Experiments:
Format in all cases: functional
[1] = tested on: Rattus norvegicus; test: Total iron output induced by the compound in bile (non-iron-overloaded bile duct cannulated rat), after 12 hours of sc administration.
[2] = tested on: Rattus norvegicus; test: Total iron output induced by the compound in bile (non-iron-overloaded bile duct cannulated rat), after 12 hours of po administration.
[3] = tested on: Rattus norvegicus; test: Total iron output induced by the compound in bile (non-iron-overloaded bile duct cannulated rat), after 18 hours of sc administration.
[4] = tested on: Rattus norvegicus; test: Total iron output induced by the compound in bile (non-iron-overloaded bile duct cannulated rat), after 3 hours of sc administration.
[5] = tested on: Rattus norvegicus; test: Total iron output induced by the compound in bile (non-iron-overloaded bile duct cannulated rat), after 6 hours of po administration.
[6] = tested on: Rattus norvegicus; test: Total iron output induced by the compound in bile (non-iron-overloaded bile duct cannulated rat), after 24 hours of po administration.
[7] = tested on: Rattus norvegicus; test: Total iron output induced by the compound in non-iron-overloaded bile duct cannulated rat(Treated-control), after 24 hours of po administration.
[8] = tested on: Rattus norvegicus; test: Total iron output induced by the compound in bile (non-iron-overloaded bile duct cannulated rat), after 18 hours of po administration.
[9] = tested on: Rattus norvegicus; test: Total iron output induced by the compound in bile (non-iron-overloaded bile duct cannulated rat), after 15 hours of po administration.
[10] = tested on: Rattus norvegicus; test: Total iron output induced by the compound in non-iron-overloaded bile duct cannulated rat, after 24 hours of po administration.
[11] = tested on: Rattus norvegicus; test: Total iron output induced by the compound in bile (non-iron-overloaded bile duct cannulated rat), after 15 hours of sc administration.
[12] = tested on: Rattus norvegicus; test: Total iron output induced by the compound in bile (non-iron-overloaded bile duct cannulated rat), after 9 hours of po administration.
[13] = tested on: Rattus norvegicus; test: Total iron output induced by the compound in non-iron-overloaded bile duct cannulated rat, after 24 hours of sc administration.
[14] = tested on: Rattus norvegicus; test: Total iron output induced by the compound in bile (non-iron-overloaded bile duct cannulated rat), after 24 hours of sc administration.
[15] = tested on: Rattus norvegicus; test: Total iron output induced by the compound in bile (non-iron-overloaded bile duct cannulated rat), after 21 hours of po administration.
[16] = tested on: Rattus norvegicus; test: Total iron output induced by the compound in urine (non-iron-overloaded bile duct cannulated rat), after 24 hours of po administration.
[17] = tested on: Rattus norvegicus; test: Total iron output induced by the compound in bile (non-iron-overloaded bile duct cannulated rat), after 21 hours of sc administration.
[18] = tested on: Rattus norvegicus; test: Total iron output induced by the compound in bile (non-iron-overloaded bile duct cannulated rat), after 6 hours of sc administration.
[19] = tested on: Rattus norvegicus; test: Total iron output induced by the compound in urine (non-iron-overloaded bile duct cannulated rat), after 24 hours of sc administration.
[20] = tested on: Rattus norvegicus; test: Total iron output induced by the compound in non-iron-overloaded bile duct cannulated rat(Treated-control), after 24 hours of sc administration.
[21] = tested on: Rattus norvegicus; test: Total iron output induced by the compound in bile (non-iron-overloaded bile duct cannulated rat), after 9 hours of sc administration.
[22] = tested on: Rattus norvegicus; test: Total iron output induced by the compound in bile (non-iron-overloaded bile duct cannulated rat), after 3 hours of po administration.

| SMILES | Iron output [1] | Iron output [2] | Iron output [3] | Iron output [4] | Iron output [5] | Iron output [6] | Iron output [7] | Iron output [8] | Iron output [9] | Iron output [10] | Iron output [11] | Iron output [12] | Iron output [13] | Iron output [14] | Iron output [15] | Iron output [16] | Iron output [17] | Iron output [18] | Iron output [19] | Iron output [20] | further results |
| --- | --- | --- | --- | --- | --- | --- | --- | --- | --- | --- | --- | --- | --- | --- | --- | --- | --- | --- | --- | --- | --- |
| COCCOCCOCCN(O)C(=O)CCC(=O)NCCCCCN(O)C(=O)CCC(=O)NCCCCCN(O)C(=O)COCCOCCOC | 467 | 59.7 | 526 | 106.9 | 31.7 | 86.6 | 34.6 | 74.6 | 67.9 | 99.8 | 509.1 | 42.5 | 585 | 539.7 | 81.3 | 13.3 | 534.2 | 244.4 | 45.3 | 519.8 | Iron output [21]: 362.6; Iron output [22]: 16.3 |
| COCCOCCOCCN(O)C(=O)CCC(=O)NCCCCCN(O)C(=O)CCC(=O)NCCCCCN(O)C(C)=O | 456.1 | 67.5 | 561.2 | 117.3 | 42.8 | 93.7 | 43.5 | 83.8 | 76.5 | 108.7 | 519.6 | 56.8 | 667.9 | 599.5 | 89 | 15 | 585.9 | 262.5 | 68.4 | 602.7 | Iron output [21]: 374.6; Iron output [22]: 20.2 |
| CC(=O)N(O)CCCCCNC(=O)CCC(=O)N(O)CCCCCNC(=O)CCC(=O)N(O)CCCCCN [DEFEROXAMINE] | 173.9 | 97.1 | 210.7 | 43.6 | 43.9 | 135 | 86.3 | 119.8 | 110.8 | 151.5 | 196.2 | 76.8 | 277.6 | 228.4 | 128.7 | 16.5 | 219.8 | 105.9 | 49.2 | 212.4 | Iron output [21]: 152.8; Iron output [22]: 14.7 |

— ChEMBL document CHEMBL1125786, “Synthesis and biological evaluation of hydroxamate-based iron chelators” (1991)
